{
  "source": "patent US8088890B2",
  "about": "“Peptides and peptidomimetic compounds, the manufacturing thereof as well as their use for preparing a therapeutically and/or preventively active pharmaceutical composition” (Fibrex Medical Research & Development GmbH, priority 2008, dated 2012)",
  "tested_on": "RhoA",
  "experiment": "thrombin induced RhoA activation in human umbilical vein endothelial cell (HUVEC) culture (Rho pull-down, Western blot)",
  "format": "cell-based",
  "settings": "5 U/ml thrombin alone, 5 min",
  "description": "The biological effect of the compounds was established in a model thrombin induced RhoA activation in human umbilical vein endothelial cell (HUVEC) culture.\nHUVEC are grown to confluence under standard conditions. Before induction of Rho activity HUVEC were starved for 4 h by using IMDM (Gibco) without growth factor and serum supplements. After the starvation period 5 U/ml Thrombin (Calbiochem) or 5 U thrombin plus 50 μg/ml of test compound are added to the starvation medium for 1, 5 and 10 min. Active RhoA was isolated using Rho Assay Reagent from Upstate according to manufactures instructions. Isolates were separated on a 15% polyacrylamide gel and blotted on Nitrocellulose-Membrane (Bio-Rad). RhoA was detected by using Anti-Rho (-A, -B, -C), clone55 from Upstate (1:500).",
  "data": [
    {"substance": "thrombin", "values": [
      {"measurement": "Relative RhoA stimulation compared to unstimulated control", "value": 6.2}
    ]}
  ]
}
